The values that follow come from PubChem BioAssay (NCI).

Among the test systems are MOLT-4 leukemia; HOP-92 NSCLC; SNB-75 CNS; MDA-MB-435; HOP-62 NSCLC; SF-295 CNS; U251 CNS; SNB-19 CNS; OVCAR-3 ovarian; LOX IMVI melanoma.
Common to all, as to test: NCI tumour cell line growth inhibition, 48 h

Molecules are shown by their SMILES.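 48-hour exposure; five concentrations; linearly interpolated endpoints. GI50: concentration for 50% inhibition of growth. TGI denotes the concentration required for complete inhibition of growth.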

On to `COc1cc(O)ccc1C(=S)SC`, for which the TGI in the assay on MOLT-4 leukemia is 92.2 µM; in the assay with HOP-92 NSCLC, greater than 100 µM; in the assay with SNB-75 CNS, greater than 100 µM; in the assay on MDA-MB-435, greater than 100 µM; with HOP-62 NSCLC, greater than 100 µM; with SF-295 CNS, greater than 100 µM. Besides, the TGI with U251 CNS, in the assay with SNB-19 CNS and with OVCAR-3 ovarian was greater than 100 µM in each case.
With `COC1=CC(=O)O/C1=C(\OC)C1OC1c1ccccc1` (centres undefined), the TGI in the assay on LOX IMVI melanoma, with MOLT-4 leukemia, in the assay on HOP-92 NSCLC, in the assay with MDA-MB-435, in the assay on HOP-62 NSCLC and with SF-295 CNS was greater than 100 µM each time. For the same compound, the TGI with U251 CNS, in the assay on SNB-19 CNS and in the assay with OVCAR-3 ovarian was greater than 100 µM in each case.
As to `COc1ccc(-c2ccc(C3CC(c4ccccc4)=NN3)o2)c([N+](=O)[O-])c1` (centres undefined), the GI50 in the assay with MOLT-4 leukemia was 22.9 µM; in the assay on HOP-92 NSCLC, 24.8 µM; in the assay with MDA-MB-435, 32.4 µM; in the assay with HOP-62 NSCLC, 52.7 µM; with SF-295 CNS, 28.6 µM; with U251 CNS, 57.3 µM. Besides, the GI50 is 86.2 µM in the assay with SNB-19 CNS and 29.8 µM in the assay on OVCAR-3 ovarian. For the same compound, the TGI with MOLT-4 leukemia is 72.9 µM; in the assay with HOP-92 NSCLC, 68.2 µM; in the assay on MDA-MB-435, greater than 100 µM; with HOP-62 NSCLC it was greater than 100 µM; in the assay on SF-295 CNS it was greater than 100 µM; with U251 CNS it was greater than 100 µM. Moreover, the TGI in the assay on SNB-19 CNS and in the assay with OVCAR-3 ovarian was greater than 100 µM throughout.
For `N=C1CCCC1C(=S)SCCC(N)=O` (centres undefined), the TGI in the assay on MOLT-4 leukemia, in the assay on HOP-92 NSCLC, with SNB-75 CNS, in the assay on MDA-MB-435, in the assay on HOP-62 NSCLC and in the assay on SF-295 CNS was greater than 100 µM in each case. The TGI in the assay on U251 CNS, in the assay with SNB-19 CNS and in the assay on OVCAR-3 ovarian was greater than 100 µM each time.
On to `CCOC(=O)c1cc(-c2ccc(OC)cc2)c([N+](=O)[O-])[nH]1`, for which the TGI in the assay with MOLT-4 leukemia, in the assay on HOP-92 NSCLC, in the assay with SNB-75 CNS, in the assay with MDA-MB-435, in the assay on HOP-62 NSCLC and with SF-295 CNS was greater than 10 µM each time. Further, the TGI with U251 CNS, in the assay with SNB-19 CNS and in the assay on OVCAR-3 ovarian was greater than 10 µM throughout.
With `N#Cc1nc(CCc2nc(C#N)c(N)o2)oc1N`, the TGI in the assay with LOX IMVI melanoma, in the assay with MOLT-4 leukemia, with HOP-92 NSCLC, in the assay on SNB-75 CNS, in the assay with MDA-MB-435 and with HOP-62 NSCLC was greater than 10 µM in each case. Further, the TGI with SF-295 CNS and in the assay with SNB-19 CNS was greater than 10 µM in each case.
Turning to `CC1=NN(c2cccc(Cl)c2)C(=O)/C1=C\c1cn(CC(O)CN2CCCCC2)c2ccccc12` (centres undefined), the GI50 is 4.76 µM with MOLT-4 leukemia; 14.8 µM in the assay with HOP-92 NSCLC; 7.75 µM with SNB-75 CNS; 1.89 µM in the assay with MDA-MB-435; 12.4 µM in the assay on HOP-62 NSCLC; 2.24 µM with SF-295 CNS. Besides, the GI50 with U251 CNS is 3.64 µM; with SNB-19 CNS, 16.8 µM; in the assay with OVCAR-3 ovarian, 7.98 µM. Besides, the TGI with MOLT-4 leukemia worked out at 28.8 µM; in the assay with HOP-92 NSCLC, 38 µM; in the assay on SNB-75 CNS it was 21.1 µM; in the assay on MDA-MB-435, 3.74 µM; in the assay with HOP-62 NSCLC, 26.5 µM; in the assay with SF-295 CNS, 5.49 µM. Besides, the TGI with U251 CNS turned out to be 14 µM; in the assay with SNB-19 CNS it was 53.7 µM; with OVCAR-3 ovarian, 20.9 µM.
In the case of `CCC[CH2][Sn-]([CH2]CCC)([CH2]CCC)[O]C(=O)C(C)C`, the GI50 in the assay on LOX IMVI melanoma is 0.0816 µM; in the assay on MOLT-4 leukemia, 0.102 µM; in the assay with HOP-92 NSCLC it was 0.037 µM; in the assay with MDA-MB-435 it was 0.153 µM; with HOP-62 NSCLC it was 0.157 µM; in the assay on SF-295 CNS, 0.199 µM. In addition, the GI50 is 0.144 µM in the assay on U251 CNS, 0.186 µM in the assay with SNB-19 CNS and 0.114 µM in the assay on OVCAR-3 ovarian. Further, the TGI in the assay with LOX IMVI melanoma worked out at 0.215 µM; in the assay with MOLT-4 leukemia it was 0.348 µM; with HOP-92 NSCLC, 0.162 µM; with MDA-MB-435 it was 0.289 µM; in the assay on HOP-62 NSCLC, 0.297 µM; in the assay on SF-295 CNS, 0.365 µM. Besides, the TGI in the assay on U251 CNS was 0.294 µM; in the assay on SNB-19 CNS it was 0.351 µM; with OVCAR-3 ovarian it was 0.238 µM.
For `COc1cc2c(/C=C3\C(=O)Nc4ccccc43)c[nH]c2cc1C`, the GI50 was 0.652 µM with LOX IMVI melanoma; 0.142 µM with MOLT-4 leukemia; 1.54 µM in the assay on HOP-92 NSCLC; 0.0566 µM in the assay on MDA-MB-435; less than 0.01 µM in the assay with HOP-62 NSCLC; 0.227 µM in the assay with SF-295 CNS. Moreover, the values for the GI50 with U251 CNS, in the assay with SNB-19 CNS and in the assay with OVCAR-3 ovarian were 0.94 µM, 0.112 µM and 0.306 µM, respectively. For the same compound, the TGI in the assay on LOX IMVI melanoma worked out at 4.19 µM; in the assay with MOLT-4 leukemia, 2.52 µM; in the assay on HOP-92 NSCLC it was 22.3 µM; in the assay on MDA-MB-435, 0.403 µM; with HOP-62 NSCLC, 10.7 µM; in the assay with SF-295 CNS, 1.65 µM. Moreover, the TGI with U251 CNS came to 4.82 µM; in the assay on SNB-19 CNS it was 32.3 µM; with OVCAR-3 ovarian it was 11.8 µM.
